From patent publication US12077503B2, “Substituted cyclic amides and their use as herbicides” (FMC CORPORATION, priority 2015, dated 2024)

Tests used:
Experiment in all cases: Test C flooded paddy test
Assay type in all cases: in vivo
[1] = system: sedge, umbrella (small-flower umbrella sedge, Cyperus difformis); conditions: Flood; for Plant response rating (scale of 0 to 100), Sedge, Umbrella: 0 is no effect, 100 is complete control
Summary of the method: (§1)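 Rice, small-flower umbrella sedge, ducksalad and barnyardgrass at the 2-leaf stage were flooded to 3 cm, and compound was applied into the paddy water. After 13 to 15 d in a greenhouse, plants were rated visually against controls on a 0 (no effect) to 100 (complete control) scale.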

[2] = system: barnyardgrass (Echinochloa crus-galli); conditions: Flood; for Plant response rating (scale of 0 to 100), Barnyardgrass: 0 is no effect, 100 is complete control
Summary of the method: as §1

[3] = system: ducksalad (Heteranthera limosa); conditions: Flood; for Plant response rating (scale of 0 to 100), Ducksalad: 0 is no effect, 100 is complete control
Summary of the method: as §1

[4] = 31 g ai/ha, scale 0 to 100 (0 no effect, 100 complete control), 13 to 15 d

Compound: O=C1NCC(c2cccc(OC(F)(F)C(F)F)c2)C1C(=O)Nc1cccc(F)c1F (racemic) [Compound 697]
- Plant response rating, Sedge, Umbrella [1, 4]: 0
- Plant response rating (scale of 0 to 100), Sedge, Umbrella ([1]; 62 g ai/ha): 0
- Plant response rating (scale of 0 to 100), Sedge, Umbrella ([1]; 125 g ai/ha): 0
- Plant response rating (scale of 0 to 100), Sedge, Umbrella ([1]; 250 g ai/ha): 0
- Plant response rating, Barnyardgrass [2, 4]: 0
- Plant response rating (scale of 0 to 100), Barnyardgrass ([2]; 62 g ai/ha): 30
- Plant response rating (scale of 0 to 100), Barnyardgrass ([2]; 125 g ai/ha): 45
- Plant response rating (scale of 0 to 100), Barnyardgrass ([2]; 250 g ai/ha): 45
- Plant response rating, Ducksalad [3, 4]: 40
- Plant response rating (scale of 0 to 100), Ducksalad ([3]; 62 g ai/ha): 40
- Plant response rating (scale of 0 to 100), Ducksalad ([3]; 125 g ai/ha): 60
- Plant response rating (scale of 0 to 100), Ducksalad ([3]; 250 g ai/ha): 100
